The text below walks through data of ChEMBL document CHEMBL5465560, “Selectivity Literature for EUbOPEN Chemogenomic Library” (2024).

In experiment [1] the target is RAC-beta serine/threonine-protein kinase (Homo sapiens) (UniProt P31751). Nature of the experiment: Selectivity interaction (Rxn Biology Kinase assay) EUB0001632a AKT2. As to conditions: at 10 µM.
The target of experiment [2] is Serine/threonine-protein kinase Nek4 (Homo sapiens) (UniProt P51957). The experiment is described as follows: Selectivity interaction (Ambit KINOMEscan and KiNATiv profiling in Jurkat cells) EUB0000090b NEK4. In kind it is cell-based. As to conditions: at 1 µM.
Sequence of Serine/threonine-protein kinase Nek4 (Homo sapiens) (P51957 whole entry, looked up, canonical isoform): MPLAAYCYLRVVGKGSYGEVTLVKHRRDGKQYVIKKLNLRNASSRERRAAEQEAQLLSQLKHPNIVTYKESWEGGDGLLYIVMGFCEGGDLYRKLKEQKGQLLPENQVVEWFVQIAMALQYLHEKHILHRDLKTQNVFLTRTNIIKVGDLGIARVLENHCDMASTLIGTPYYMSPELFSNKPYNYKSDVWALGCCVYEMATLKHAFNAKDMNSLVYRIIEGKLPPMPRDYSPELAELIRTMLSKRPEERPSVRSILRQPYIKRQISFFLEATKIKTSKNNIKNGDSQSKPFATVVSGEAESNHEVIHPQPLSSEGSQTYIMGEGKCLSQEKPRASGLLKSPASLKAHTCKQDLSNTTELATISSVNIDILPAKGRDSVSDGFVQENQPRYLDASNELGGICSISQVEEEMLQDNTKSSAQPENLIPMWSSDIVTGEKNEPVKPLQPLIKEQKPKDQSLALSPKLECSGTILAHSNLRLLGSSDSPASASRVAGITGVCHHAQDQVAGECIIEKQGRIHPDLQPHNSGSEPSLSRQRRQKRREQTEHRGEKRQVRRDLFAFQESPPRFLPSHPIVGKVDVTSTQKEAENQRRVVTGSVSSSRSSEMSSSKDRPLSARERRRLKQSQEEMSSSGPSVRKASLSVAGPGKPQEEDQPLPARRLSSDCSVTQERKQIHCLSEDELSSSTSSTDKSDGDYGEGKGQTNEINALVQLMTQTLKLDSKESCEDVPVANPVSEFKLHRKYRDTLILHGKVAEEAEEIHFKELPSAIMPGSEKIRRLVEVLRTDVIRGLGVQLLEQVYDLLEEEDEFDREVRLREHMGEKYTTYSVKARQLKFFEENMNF
For experiment [3], the system named is Phosphatidylinositol 4,5-bisphosphate 3-kinase catalytic subunit alpha isoform (Homo sapiens), P42336 [E545K]. As to conditions: at 10 µM.
Sequence of Phosphatidylinositol 4,5-bisphosphate 3-kinase catalytic subunit alpha isoform (Homo sapiens), P42336 [E545K] (P42336 whole entry E545K, canonical isoform): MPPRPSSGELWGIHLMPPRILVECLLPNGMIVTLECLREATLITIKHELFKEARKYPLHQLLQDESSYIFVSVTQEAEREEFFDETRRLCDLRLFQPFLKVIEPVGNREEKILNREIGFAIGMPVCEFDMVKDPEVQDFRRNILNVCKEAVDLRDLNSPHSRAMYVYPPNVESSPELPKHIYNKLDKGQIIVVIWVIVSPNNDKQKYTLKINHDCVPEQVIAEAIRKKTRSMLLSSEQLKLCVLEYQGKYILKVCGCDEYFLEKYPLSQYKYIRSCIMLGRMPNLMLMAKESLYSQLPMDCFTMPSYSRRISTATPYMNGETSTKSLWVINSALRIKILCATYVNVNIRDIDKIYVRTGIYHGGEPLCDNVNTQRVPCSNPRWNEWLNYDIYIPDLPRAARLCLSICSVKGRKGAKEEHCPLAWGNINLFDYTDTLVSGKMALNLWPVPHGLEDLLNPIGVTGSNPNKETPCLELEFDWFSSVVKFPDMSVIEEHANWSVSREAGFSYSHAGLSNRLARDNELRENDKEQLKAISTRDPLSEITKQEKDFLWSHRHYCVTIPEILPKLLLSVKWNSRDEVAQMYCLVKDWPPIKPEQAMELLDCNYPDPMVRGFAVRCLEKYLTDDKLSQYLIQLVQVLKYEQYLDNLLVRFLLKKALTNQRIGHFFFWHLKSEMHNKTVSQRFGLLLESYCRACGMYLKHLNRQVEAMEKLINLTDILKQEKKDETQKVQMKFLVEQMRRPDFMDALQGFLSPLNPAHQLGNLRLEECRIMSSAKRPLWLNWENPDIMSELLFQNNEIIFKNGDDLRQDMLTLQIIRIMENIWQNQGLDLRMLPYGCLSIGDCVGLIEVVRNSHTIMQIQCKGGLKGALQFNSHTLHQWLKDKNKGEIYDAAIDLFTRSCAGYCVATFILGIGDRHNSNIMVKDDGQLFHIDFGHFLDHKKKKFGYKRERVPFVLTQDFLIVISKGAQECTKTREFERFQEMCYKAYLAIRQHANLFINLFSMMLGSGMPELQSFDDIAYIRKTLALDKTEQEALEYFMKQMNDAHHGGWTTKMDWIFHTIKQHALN
Experiment [4] addresses T1, Peripheral plasma membrane protein CASK (Homo sapiens) (UniProt O14936).
T1 sequence (whole entry): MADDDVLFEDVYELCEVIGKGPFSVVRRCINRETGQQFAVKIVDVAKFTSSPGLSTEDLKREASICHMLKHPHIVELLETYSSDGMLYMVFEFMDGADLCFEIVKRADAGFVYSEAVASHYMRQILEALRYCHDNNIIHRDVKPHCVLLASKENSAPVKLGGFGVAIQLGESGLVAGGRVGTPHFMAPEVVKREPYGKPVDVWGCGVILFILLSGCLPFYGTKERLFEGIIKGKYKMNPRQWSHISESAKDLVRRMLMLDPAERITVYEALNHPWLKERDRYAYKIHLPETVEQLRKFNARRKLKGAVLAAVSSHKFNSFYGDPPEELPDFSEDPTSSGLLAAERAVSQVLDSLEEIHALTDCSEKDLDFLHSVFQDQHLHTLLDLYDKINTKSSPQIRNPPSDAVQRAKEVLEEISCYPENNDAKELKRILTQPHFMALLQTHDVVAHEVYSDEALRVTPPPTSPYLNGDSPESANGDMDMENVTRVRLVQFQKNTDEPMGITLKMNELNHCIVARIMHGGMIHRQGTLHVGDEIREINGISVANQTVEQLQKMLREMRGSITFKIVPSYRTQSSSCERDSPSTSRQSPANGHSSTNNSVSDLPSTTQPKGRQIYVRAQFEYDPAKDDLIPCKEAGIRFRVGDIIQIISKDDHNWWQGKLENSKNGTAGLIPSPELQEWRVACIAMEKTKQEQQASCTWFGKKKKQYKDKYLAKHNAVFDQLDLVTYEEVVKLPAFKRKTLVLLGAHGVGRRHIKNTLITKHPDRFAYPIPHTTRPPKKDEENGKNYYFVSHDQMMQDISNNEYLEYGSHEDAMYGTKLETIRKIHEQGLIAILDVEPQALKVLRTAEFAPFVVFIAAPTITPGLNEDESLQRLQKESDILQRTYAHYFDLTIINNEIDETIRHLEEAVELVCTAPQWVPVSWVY
Nature of the experiment: Selectivity interaction (Kinase panel (DSF assay)) EUB0001558a CASK. In general terms: Differential scanning fluorimetry follows unfolding on heating by fluorescence.

The target in experiment [5] is Phosphatidylinositol 4-phosphate 5-kinase type-1 alpha (Homo sapiens) (UniProt Q99755). Nature of the experiment: Selectivity interaction (KinomeScan (DiscoverX)) EUB0001079a PIP5K1A. The note with it: at 1 µM.
Experiment [6] concerns the target Receptor-type tyrosine-protein kinase FLT3 (Homo sapiens) (UniProt P36888). Nature of the experiment: Selectivity interaction (KinomeScan (DiscoverX)) EUB0001049a FLT3. As to conditions: at 1 µM.
Experiment [7] has as its target T2, Protein kinase C zeta type (Homo sapiens) (UniProt Q05513).
T2 sequence (whole entry): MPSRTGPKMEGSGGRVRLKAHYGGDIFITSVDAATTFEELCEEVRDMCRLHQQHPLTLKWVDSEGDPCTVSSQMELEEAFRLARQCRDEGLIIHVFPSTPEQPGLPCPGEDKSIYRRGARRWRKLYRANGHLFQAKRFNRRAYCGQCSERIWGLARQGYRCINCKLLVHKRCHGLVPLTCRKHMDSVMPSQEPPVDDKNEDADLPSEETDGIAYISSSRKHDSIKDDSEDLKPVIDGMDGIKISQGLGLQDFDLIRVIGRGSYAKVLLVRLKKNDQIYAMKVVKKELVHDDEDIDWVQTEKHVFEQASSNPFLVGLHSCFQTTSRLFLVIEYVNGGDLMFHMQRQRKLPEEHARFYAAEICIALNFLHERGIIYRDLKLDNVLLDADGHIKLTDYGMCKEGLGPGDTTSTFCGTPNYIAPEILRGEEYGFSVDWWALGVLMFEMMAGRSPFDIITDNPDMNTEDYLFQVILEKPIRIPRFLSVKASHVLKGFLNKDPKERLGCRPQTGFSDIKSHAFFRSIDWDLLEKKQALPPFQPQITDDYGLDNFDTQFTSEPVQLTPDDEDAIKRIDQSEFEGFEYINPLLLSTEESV
The experiment is described as follows: Selectivity interaction (ProQinase) EUB0000171b PRKCZ. The note with it: at 1 µM.

Experiment [8] deals with Mitogen-activated protein kinase kinase kinase 20 (Homo sapiens) (UniProt Q9NYL2). The experiment is described as follows: Selectivity interaction (ProQinase) EUB0000171b MAP3K20.
Sequence of Mitogen-activated protein kinase kinase kinase 20 (Homo sapiens) (Q9NYL2 2-800 limits assumed): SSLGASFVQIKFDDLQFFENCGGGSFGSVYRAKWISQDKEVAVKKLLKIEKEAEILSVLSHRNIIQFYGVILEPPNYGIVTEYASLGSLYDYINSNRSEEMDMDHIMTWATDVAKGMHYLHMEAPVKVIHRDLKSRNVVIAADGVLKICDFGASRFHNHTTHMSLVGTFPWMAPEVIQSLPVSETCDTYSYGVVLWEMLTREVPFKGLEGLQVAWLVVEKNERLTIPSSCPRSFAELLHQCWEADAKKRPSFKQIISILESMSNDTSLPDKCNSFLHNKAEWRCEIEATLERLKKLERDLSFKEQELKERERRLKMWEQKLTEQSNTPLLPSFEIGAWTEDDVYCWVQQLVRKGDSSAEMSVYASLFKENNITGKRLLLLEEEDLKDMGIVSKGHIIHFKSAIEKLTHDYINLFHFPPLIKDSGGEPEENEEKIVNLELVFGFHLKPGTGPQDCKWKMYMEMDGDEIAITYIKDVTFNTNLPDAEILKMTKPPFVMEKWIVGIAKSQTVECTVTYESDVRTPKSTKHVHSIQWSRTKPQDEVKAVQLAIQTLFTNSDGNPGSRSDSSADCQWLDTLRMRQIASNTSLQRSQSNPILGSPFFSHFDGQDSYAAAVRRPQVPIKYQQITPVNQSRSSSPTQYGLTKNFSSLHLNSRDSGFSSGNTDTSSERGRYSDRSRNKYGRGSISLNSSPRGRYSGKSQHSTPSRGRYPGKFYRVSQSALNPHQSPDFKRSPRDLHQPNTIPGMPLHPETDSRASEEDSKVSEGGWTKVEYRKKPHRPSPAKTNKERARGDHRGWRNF
Experiment [9] deals with Wee1-like protein kinase (Homo sapiens) (UniProt P30291). The experiment is described as follows: Selectivity interaction (KinomeScan (DiscoverX)) EUB0000092b WEE1. The note with it: at 10 µM.
Sequence of Wee1-like protein kinase (Homo sapiens) (P30291 whole entry, looked up): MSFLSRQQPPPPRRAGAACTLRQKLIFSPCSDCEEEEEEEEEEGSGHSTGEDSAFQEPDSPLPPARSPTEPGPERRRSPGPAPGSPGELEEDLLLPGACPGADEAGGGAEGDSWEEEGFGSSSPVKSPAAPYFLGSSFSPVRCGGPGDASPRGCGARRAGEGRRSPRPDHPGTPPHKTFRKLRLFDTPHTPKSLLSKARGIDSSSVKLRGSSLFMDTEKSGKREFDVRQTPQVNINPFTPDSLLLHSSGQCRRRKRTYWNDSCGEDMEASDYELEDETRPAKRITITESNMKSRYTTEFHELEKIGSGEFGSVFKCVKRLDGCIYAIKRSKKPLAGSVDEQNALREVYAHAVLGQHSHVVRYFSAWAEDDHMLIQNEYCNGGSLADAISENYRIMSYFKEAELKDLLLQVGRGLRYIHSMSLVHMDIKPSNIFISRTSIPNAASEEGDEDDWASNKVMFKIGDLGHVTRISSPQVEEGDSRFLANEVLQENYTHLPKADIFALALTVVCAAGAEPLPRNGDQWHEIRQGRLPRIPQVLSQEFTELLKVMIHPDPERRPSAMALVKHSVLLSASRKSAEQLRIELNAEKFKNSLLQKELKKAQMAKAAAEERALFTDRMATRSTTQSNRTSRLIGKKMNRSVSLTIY
Experiment [10] has as its target Cyclin-dependent kinase 7 (Homo sapiens, UniProt P50613). The experiment is described as follows: Selectivity interaction (KinomeScan (DiscoverX)) EUB0000595a CDK7. The note with it: at 10 µM.
Experiment [11] addresses Receptor tyrosine-protein kinase erbB-4 (Homo sapiens, UniProt Q15303). The experiment is described as follows: Selectivity interaction (KinomeScan (DiscoverX)) EUB0000595a ERBB4. As to conditions: at 10 µM.

Sequence of Receptor tyrosine-protein kinase erbB-4 (Q15303 whole entry): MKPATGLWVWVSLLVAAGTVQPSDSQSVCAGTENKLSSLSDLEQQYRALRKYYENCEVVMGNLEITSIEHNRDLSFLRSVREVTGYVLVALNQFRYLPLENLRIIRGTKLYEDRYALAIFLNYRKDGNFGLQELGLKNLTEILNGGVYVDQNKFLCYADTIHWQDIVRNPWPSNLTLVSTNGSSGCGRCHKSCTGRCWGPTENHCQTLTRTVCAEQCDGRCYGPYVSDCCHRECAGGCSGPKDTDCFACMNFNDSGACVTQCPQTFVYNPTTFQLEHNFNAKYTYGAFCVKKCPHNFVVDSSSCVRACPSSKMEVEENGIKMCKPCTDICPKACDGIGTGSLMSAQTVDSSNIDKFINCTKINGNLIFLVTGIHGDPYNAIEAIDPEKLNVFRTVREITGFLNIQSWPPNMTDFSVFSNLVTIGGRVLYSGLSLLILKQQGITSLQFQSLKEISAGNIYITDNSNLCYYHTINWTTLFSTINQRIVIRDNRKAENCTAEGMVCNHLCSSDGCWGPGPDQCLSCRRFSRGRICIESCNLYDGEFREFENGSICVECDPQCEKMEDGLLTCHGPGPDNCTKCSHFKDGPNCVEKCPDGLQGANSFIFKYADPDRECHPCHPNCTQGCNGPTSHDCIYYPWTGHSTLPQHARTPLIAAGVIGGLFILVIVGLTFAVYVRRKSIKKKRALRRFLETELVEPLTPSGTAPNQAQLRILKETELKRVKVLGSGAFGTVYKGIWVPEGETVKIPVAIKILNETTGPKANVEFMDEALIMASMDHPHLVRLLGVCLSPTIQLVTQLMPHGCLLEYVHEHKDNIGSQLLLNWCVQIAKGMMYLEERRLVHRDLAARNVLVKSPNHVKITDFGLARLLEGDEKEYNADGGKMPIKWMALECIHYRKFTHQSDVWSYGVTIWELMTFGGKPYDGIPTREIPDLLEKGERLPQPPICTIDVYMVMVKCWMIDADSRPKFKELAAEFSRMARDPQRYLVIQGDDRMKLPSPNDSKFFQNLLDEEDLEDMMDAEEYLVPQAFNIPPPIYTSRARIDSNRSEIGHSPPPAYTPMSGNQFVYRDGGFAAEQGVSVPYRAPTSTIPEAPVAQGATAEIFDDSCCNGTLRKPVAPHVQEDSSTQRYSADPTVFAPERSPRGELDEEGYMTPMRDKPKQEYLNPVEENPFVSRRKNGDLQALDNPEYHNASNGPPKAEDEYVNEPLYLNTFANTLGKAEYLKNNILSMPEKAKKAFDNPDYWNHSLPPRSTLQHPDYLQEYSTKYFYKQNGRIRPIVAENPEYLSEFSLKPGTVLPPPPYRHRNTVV
Sequence of Cyclin-dependent kinase 7 (P50613 whole entry): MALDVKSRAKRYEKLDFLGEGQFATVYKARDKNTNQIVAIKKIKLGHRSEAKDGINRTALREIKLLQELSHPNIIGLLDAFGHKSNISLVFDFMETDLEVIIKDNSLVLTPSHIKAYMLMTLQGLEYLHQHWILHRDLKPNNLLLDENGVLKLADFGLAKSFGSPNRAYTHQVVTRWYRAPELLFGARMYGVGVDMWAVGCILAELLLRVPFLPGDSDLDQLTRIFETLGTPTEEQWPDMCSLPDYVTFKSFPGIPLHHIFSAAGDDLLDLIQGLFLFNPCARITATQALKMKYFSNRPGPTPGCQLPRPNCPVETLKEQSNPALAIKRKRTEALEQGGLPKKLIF

Molecule `Cn1cc(-n2cnc3c(NCc4nc5cc(Cl)c(Cl)cc5[nH]4)nc(N4CCOCC4)nc32)cn1` yielded a % of inhibition in experiment [1] of 1.65%.

Molecule `CN(C)C/C=C/C(=O)Nc1ccc(C(=O)N2CCCC(Nc3ncc(Cl)c(-c4c[nH]c5ccccc45)n3)C2)cc1` (configuration not stated) showed a % of control in experiment [2] of 100%.

Regarding `CNC(=O)Nc1ccc(-c2nc(N3CC4CCC(C3)O4)c3cnn(C4CCC5(CC4)OCCO5)c3n2)cc1`, the % of control in experiment [3] came out at 11%.

As to `CC(C)(O)[C@H](F)CN1Cc2cc(NC(=O)c3cnn4cccnc34)c(N3CCOCC3)cc2C1=O`, the dTM in experiment [4] was -0.5 K.

`Nc1cnc(N2CCc3cc(S(=O)(=O)Nc4c(F)cc(Cl)cc4F)cc(N4CCCC4=O)c32)nc1` [TP-020n] yielded a % of control in experiment [5] of 100%.

With `COc1cc(Nc2nc(C)cc(-c3cnn4nc(OC)ccc34)n2)cc(C(F)(F)F)c1`, the % of control in experiment [6] was 64%.

On to `C=CC(=O)Nc1cccc(C(=O)Nc2ccc(Nc3cc(-c4[nH]c(SC)nc4C)ccn3)cc2)c1`, for which the % of control was found to be 90% in [7], 48% in experiment [8] (at 1 µM) and 15% in [8] (at 5 µM).

`CCC(=O)N1CCN(c2ccc(-n3c(=O)ccc4cnc5ccc(-c6cnc7ccccc7c6)cc5c43)cc2C(F)(F)F)CC1` had a % of control in [9] of 42%.

`COCC(=O)NC/C=C/c1ccc2ncnc(Nc3ccc(Oc4ccc(C)nc4)c(C)c3)c2c1` [CP-724714]: the % of control in experiment [10] was 100%; in [11], 0.9%.
